Source: US9493444B2 (Merck Patent GmbH, priority 2012, dated 2016)

Test system: Wnt pathway (TCF-dependent transcription in HEK293 luciferase reporter cell line with ER-DSH construct)
Assay: Cellular assay for Wnt pathway activity (luciferase reporter)
Format: cell-based
Settings: Homo sapiens; Wnt pathway inhibition, HEK293 luciferase reporter cells (ER-DSH, TCF promoter), 24 hours incubation, estrogen-induced
Protocol: 1. Cellular Assay for Wnt Pathway Activity
Compounds were tested for their Wnt pathway inhibitory activities using a luciferase reporter cell based assay. A HEK293 luciferase reporter cell line was used which contained an Estrogen Receptor-Dishevelled (ER-DSH) construct and a T-Cell Factor (TCF) dependent gene promoter luciferase construct.
Compounds, in concentrations from 30 μM down to 1 nM, were incubated for 24 hours on the cells, which were induced for TCF-dependent transcription by the addition of estrogen (10). Luciferase activities were determined using the ONE GLO Luciferase Assay System (Promega) and the ENVISION microplate reader (Perkin Elmer). For analysis, the obtained data were normalized against the untreated vehicle control and fitted for determination of the IC50 values using the Assay Explorer software (Accelrys).

SMILES	IC50 [nM]
CC(=O)N(C)CCN(C)c1cncc(Oc2ccc(-c3ccc(N4CCNCC4)nc3)cc2)n1 [Compound 245, N-Methyl-N-[2-(methyl-{6-[4-(6-piperazin-1-yl-pyridin-3-yl)-phenoxy]-pyrazin-2-yl}-amino)-ethyl]-acetamide]	< 200
CC(=O)N(C)CCN(C)c1cncc(Oc2ccc3ncccc3c2)n1 [Compound 47, N-Methyl-N-(2-{methyl-[6-(quinolin-6-yloxy)-pyrazin-2-yl]-amino}-ethyl)-acetamide]	1000 to 10000
CC(=O)N(C)CCN(C)c1cncc(Oc2ccc(-c3cc(C(N)=O)ccn3)cc2)n1 [Compound 192, 2-[4-(6-{[2-(Acetyl-methyl-amino)-ethyl]-methyl-amino}-pyrazin-2-yloxy)-phenyl]-isonico-tinamide]	200 to 1000
Nc1cnc(-c2ccc(Oc3cncc(NCCN4CCCCC4=O)n3)cc2)cn1 [Compound 291, 1-(2-{6-[4-(5-Amino-pyrazin-2-yl)-phenoxy]-pyrazin-2-ylamino}-ethyl)-piperidin-2-one]	< 200
CC(=O)N(C)CCNc1cncc(Oc2ccc(-c3ccc(CO)cn3)cc2)n1 [Compound 293, N-(2-{6-[4-(5-Hydroxy-methyl-pyridin-2-yl)-phenoxy]-pyrazin-2-ylamino}-ethyl)-N-methyl-acetamide]	200 to 1000
CC(=O)Nc1ccc(-c2ccc(Oc3cncc(N(C)CCN(C)C(C)=O)n3)cc2)cn1 [Compound 182, N-{5-[4-(6-{[2-(Acetyl-methyl-amino)-ethyl]-methyl-amino}-pyrazin-2-yloxy)-phenyl]-pyridin-2-yl}-acetamide]	< 200
COc1ccc(Oc2cncc(N(C)CCN(C)C(C)=O)n2)cc1OC [Compound 140, N-(2-{[6-(3,4-Dimethoxy-phenoxy)-pyrazin-2-yl]-methyl-amino}-ethyl)-N-methyl-acetamide]	1000 to 10000
CCN(CCN(CC)c1cncc(Oc2ccc(F)cc2)n1)C(C)=O [Compound 102, N-Ethyl-N-(2-{ethyl-[6-(4-fluoro-phenoxy)-pyrazin-2-yl]-amino}-ethyl)-acetamide]	200 to 1000
CC(=O)N(C)CCN(C)c1cncc(Oc2ccc(Br)c(C)c2)n1 [Compound 111, N-(2-{[6-(4-Bromo-3-methyl-phenoxy)-pyrazin-2-yl]-methyl-amino}-ethyl)-N-methyl-acetamide]	200 to 1000
CC(=O)N(C)CCN(C)c1cncc(Oc2ccc(-c3cc4ccccc4cn3)cc2)n1 [Compound 166, N-(2-{[6-(4-Isoquinolin-3-yl-phenoxy)-pyrazin-2-yl]-methyl-amino}-ethyl)-N-methyl-acetamide]	200 to 1000
CC(=O)N(C)CCN(C)c1cncc(Oc2ccc(C(N)=O)cc2)n1 [Compound 143, 4-(6-{[2-(Acetyl-methyl-amino)-ethyl]-methyl-amino}-pyrazin-2-yloxy)-benzamide]	200 to 1000
CC(=O)N(C)CCN(C)c1cncc(Oc2ccc(C(=O)Nc3cccnc3)cc2)n1 [Compound 231, 4-(6-{[2-(Acetyl-methyl-amino)-ethyl]-methyl-amino}-pyrazin-2-yloxy)-N-pyridin-3-yl-benzamide]	< 200
CC(=O)N(C)CCCc1cncc(Oc2ccc(-c3ccncc3)cc2F)n1 [Compound 270, N-{3-[6-(2-Fluoro-4-pyridin-4-yl-phenoxy)-pyrazin-2-yl]-propyl}-N-methyl-acetamide]	200 to 1000
CC(=O)N(C)CCN(C)c1cncc(Oc2ccc(-c3cccc(C(N)=O)n3)cc2)n1 [Compound 170, 6-[4-(6-{[2-(Acetyl-methyl-amino)-ethyl]-methyl-amino}-pyrazin-2-yloxy)-phenyl]-pyridine-2-carboxylic acid amide]	< 200
CC(=O)N(C)CCNc1cncc(Oc2ccc(-c3cccnc3)c(F)c2F)n1 [Compound 302, N-{2-[6-(2,3-Difluoro-4-pyridin-3-yl-phenoxy)-pyrazin-2-ylamino]-ethyl}-N-methyl-acetamide]	1000 to 10000
COc1ccc(-c2ccc(Oc3cncc(N(C)CCN(C)C(C)=O)n3)cc2)cn1 [Compound 184, N-[2-({6-[4-(6-Methoxy-pyridin-3-yl)-phenoxy]-pyrazin-2-yl}-methyl-amino)-ethyl]-N-methyl-acetamide]	< 200
CC(=O)N(C)CCN(C)c1cncc(Oc2ccc(C(=O)N3CCCC(c4cccn4C)=N3)cc2)n1 [Compound 126, N-Methyl-N-{2-[methyl-(6-{4-[3-(1-methyl-1H-pyrrol-2-yl)-5,6-dihydro-4H-pyridazine-1-carbonyl]-phenoxy}-pyrazin-2-yl)-amino]-ethyl} acetamide]	1000 to 10000
CCN(CCN(C)c1cncc(Oc2ccc(OC)cc2)n1)C(C)=O [Compound 77, N-Ethyl-N-(2-{[6-(4-methoxy-phenoxy)-pyrazin-2-yl]-methyl-amino}-ethyl)-acetamide]	< 200
CC(=O)N(C)CCSc1cncc(Oc2ccc(F)cc2)n1 [Compound 136, N-{2-[6-(4-Fluoro-phenoxy)-pyrazin-2-ylsulfanyl]-ethyl}-N-methyl-acetamide]	< 200

SMILES	IC50 [nM]
COc1ccc(Oc2cncc(N(C)CCN(C)C(=O)CC(C)(C)C)n2)cc1 [Compound 32, N-(2-{[6-(4-Methoxy-phenoxy)-pyrazin-2-yl]-methyl-amino}-ethyl)-3,3-N-trimethyl-butyramide]	1000 to 10000
CNC(=O)CCN(C)c1cncc(Oc2ccc(F)cc2)n1 [Compound 29]	200 to 1000
CC(=O)N(C)CCN(C)c1cncc(Oc2ccc(C)cc2)n1 [Compound 52, N-Methyl-N-{2-[methyl-(6-p-tolyloxy-pyrazin-2-yl)-amino]-ethyl}-acetamide]	< 200
CC(=O)N(C)CCN(C)c1cncc(Oc2ccc(-c3cc(C(F)(F)F)ccn3)cc2)n1 [Compound 128, N-Methyl-N-[2-(methyl-{6-[4-(4-trifluoro-methyl-pyridin-2-yl)-phenoxy]-pyrazin-2-yl}-amino)-ethyl]-acetamide]	1000 to 10000
CC(=O)N(C)CCN(C)c1cncc(Oc2ccc(C(C)C)cc2)n1 [Compound 95, N-(2-{[6-(4-Isopropyl-phenoxy)-pyrazin-2-yl]-methyl-amino}-ethyl)-N-methyl-acetamide]	< 200
CC(=O)N(C)CCN(C)c1cncc(Oc2ccc(-c3ccnc(O)c3)cc2)n1 [Compound 204, N-[2-({6-[4-(2-Hydroxy-pyridin-4-yl)-phenoxy]-pyrazin-2-yl}-methyl-amino)-ethyl]-N-methyl-acetamide]	200 to 1000
COc1ccc(-c2ccc(Oc3cncc(N(C)CCN(C)C(C)=O)n3)cc2)nc1 [Compound 163, N-[2-({6-[4-(5-Methoxy-pyridin-2-yl)-phenoxy]-pyrazin-2-yl}-methyl-amino)-ethyl]-N-methyl-acetamide]	< 200
CN(CCCN(C)c1cncc(Oc2ccc(F)cc2)n1)C(=O)C(F)(F)F [Compound 84, 2,2,2-Trifluoro-N-(3-{[6-(4-fluoro-phenoxy)-pyrazin-2-yl]-methyl-amino}-propyl)-N-methyl-acetamide]	1000 to 10000
CC(=O)Nc1cccc(-c2ccc(Oc3cncc(CCCN(C)C(C)=O)n3)cc2)n1 [Compound 218, N-(3-{6-[4-(6-Acetylamino-pyridin-2-yl)-phenoxy]-pyrazin-2-yl}-propyl)-N-methyl-acetamide]	200 to 1000
CC(=O)N(C)CCCc1cncc(Oc2ccc(-c3cnc(N)cn3)cc2)n1 [Compound 214, N-(3-{6-[4-(5-Amino-pyrazin-2-yl)-phenoxy]-pyrazin-2-yl}-propyl)-N-methyl-acetamide]	200 to 1000
CNCCN(C)c1cncc(Oc2ccc(-c3cc(C(F)(F)F)ccn3)cc2)n1 [Compound 120, N,N′-Dimethyl-N-{6-[4-(4-trifluoro-methyl-pyridin-2-yl)-phenoxy]-pyrazin-2-yl}-ethane-1,2-diamine]	1000 to 10000
CC(=O)N(C)CCCc1cncc(Oc2ccc(-c3ccc(C)cn3)cc2F)n1 [Compound 268, N-(3-{6-[2-Fluoro-4-(5-methyl-pyridin-2-yl)-phenoxy]-pyrazin-2-yl}-propyl)-N-methyl-acetamide]	< 200
CCC(=O)N(C)CCN(C)c1cncc(Oc2ccc(F)cc2)n1 [Compound 34, N-(2-{[6-(4-Fluoro-phenoxy)pyrazin-2-yl]-methyl-amino}-ethyl)-N-methyl-propionamide]	1000 to 10000
CC(=O)N(C)CCNc1cncc(Oc2ccc(-c3ccc(N4CCOCC4)nc3)cc2)n1 [Compound 233, N-Methyl-N-(2-{6-[4-(6-morpholin-4-yl-pyridin-3-yl)-phenoxy]-pyrazin-2-ylamino}-ethyl)-acetamide]	1000 to 10000
CC(=O)N(C)CCCc1cncc(Oc2ccc(-c3cccc(N4CCN(C)CC4)n3)cc2)c1 [Compound 316, N-Methyl-N-[3-(5-{4-[6-(4-methyl-piperazin-1-yl)-pyridin-2-yl]-phenoxy}-pyridin-3-yl)-propyl]-acetamide]	1000 to 10000
CC(=O)N(C)CCN(C)c1cncc(Oc2ccc(B(O)O)cc2)n1 [Compound 7, 4-(6-{[2-(Acetyl-methyl-amino)-ethyl]-methyl-amino}-pyrazin-2-yloxy)-boronic acid]	200 to 1000
CC(=O)N(C)CCN(C)c1cncc(Oc2ccc(CCC#N)cc2)n1 [Compound 232, N-[2-({6-[4-(2-Cyano-ethyl)-phenoxy]-pyrazin-2-yl}-methyl-amino)-ethyl]-N-methyl-acetamide]	< 200
CC(=O)N(C)CCN(C)c1cncc(Oc2ccc(-c3ccn(C)n3)c(F)c2F)n1 [Compound 256, N-[2-({6-[2,3-Difluoro-4-(1-methyl-1H-pyrazol-3-yl)-phenoxy]-pyrazin-2-yl}-methyl-amino)-ethyl]-N-methyl-acetamide]	200 to 1000
CC(=O)N(C)CCN(C)c1cncc(Sc2ccc(Br)cc2)n1 [Compound 130, N-(2-{[6-(4-Bromo-phenyl-sulfanyl)-pyrazin-2-yl]-methyl-amino}-ethyl)-N-methyl-acetamide]	1000 to 10000
